Measured values taken from US8993542B2, “Methods of treating viral infections” (priority 2008, dated 2015).

Assays:
HIV = experiment: microbe, parasite or virus in culture; type: cell-based
HIV-1IIIB = experiment: Two-drug combination antiviral assay in CEM cells (CPE), MacSynergy II; type: cell-based; conditions: in combination with CMX157, CEM-SS cells, 95% confidence
[1] = Human immunodeficiency virus 1, PANEL 2, WT
[2] = Human immunodeficiency virus 1, PANEL 3, 6 TAMs, no 184
[3] = Human immunodeficiency virus 1, PANEL 6, 6 TAMs + 184
[4] = Human immunodeficiency virus 1, PANEL 7, 184V
[5] = Human immunodeficiency virus 1, PANEL 9, 69ins, no 184
[6] = Human immunodeficiency virus 1, PANEL 12, 69ins + 184
[7] = Human immunodeficiency virus 1, PANEL 14, 65R, no 184
[8] = Human immunodeficiency virus 1, PANEL 15, 65R + 184V
[9] = Human immunodeficiency virus 1, PANEL 17, L74V
[10] = Human immunodeficiency virus 1, PANEL 19, L74V + M184V
[11] = Human immunodeficiency virus 1, PANEL 26, 151M, no 184
[12] = Human immunodeficiency virus 1, PANEL 28, 151M + 184
[13] = Human immunodeficiency virus 1, PANEL 29, L74V − SDM
[14] = Human immunodeficiency virus 1, PANEL 30, M184V − SDM
[15] = Human immunodeficiency virus 1, PANEL 31, K65R − SDM
[16] = Human immunodeficiency virus 1, PANEL 33, T215Y
[17] = Human immunodeficiency virus 1, PANEL 34, T215Y + M184V
[18] = Human immunodeficiency virus 1, PANEL 35, M41L + T215Y
[19] = Human immunodeficiency virus 1, PANEL 37, M41L + T215Y + M184V
[20] = Human immunodeficiency virus 1, PANEL 38, M41L + L210W + T215Y
[21] = Human immunodeficiency virus 1, PANEL 39, M41L + L210W + T215Y
[22] = Human immunodeficiency virus 1, PANEL 40, M41L + L210W + T215Y + M184V
[23] = Human immunodeficiency virus 1, PANEL 41, M41L + L210W + T215Y + M184V
[24] = Human immunodeficiency virus 1, PANEL 42, D67N + K70R
[25] = Human immunodeficiency virus 1, PANEL 44, D67N + K70R + T215F + K219E + M184V
[26] = Human immunodeficiency virus 1, PANEL 45, L210W + T215Y
[27] = Human immunodeficiency virus 1, PANEL 46, D67N + K70E
[28] = Human immunodeficiency virus 1, PANEL 47, D67N + K70E + M184V
[29] = Human immunodeficiency virus 1, PANEL 48, K70E + M184V

## Cc1cn([C@H]2C[C@H](N=[N+]=[N-])[C@@H](CO)O2)c(=O)[nH]c1=O [ZDV, 3′-azido-2′,3′-dideoxythymdine]
HIV; [1]
  IC50: 0.017 µM
HIV; [2]
  IC50: 9.56 µM
HIV; [3]
  IC50: 1.61 µM
HIV; [4]
  IC50: 0.017 µM
HIV; [5]
  IC50: > 25 µM
HIV; [6]
  IC50: 8.71 µM
HIV; [7]
  IC50: 0.012 µM
HIV; [8]
  IC50: 0.011 µM
HIV; [9]
  IC50: 0.011 µM
HIV; [10]
  IC50: 0.006 µM
HIV; [11]
  IC50: 2.54 µM
HIV; [12]
  IC50: 4.18 µM
HIV; [13]
  IC50: 0.014 µM
HIV; [14]
  IC50: 0.009 µM
HIV; [15]
  IC50: 0.014 µM
HIV; [16]
  IC50: 1.05 µM
HIV; [17]
  IC50: 0.071 µM
HIV; [18]
  IC50: 0.557 µM
HIV; [19]
  IC50: 0.177 µM
HIV; [20]
  IC50: 2.72 µM
HIV; [21]
  IC50: 2.68 µM
HIV; [22]
  IC50: 0.087 µM
HIV; [23]
  IC50: 0.107 µM
HIV; [24]
  IC50: 0.77 µM
HIV; [25]
  IC50: 0.192 µM
HIV; [26]
  IC50: 0.207 µM
HIV; [27]
  IC50: 0.006 µM
HIV; [28]
  IC50: 0.004 µM
HIV; [29]
  IC50: 0.004 µM
HIV-1IIIB
  Antagonism Volume, Result 1: −67.8 nM^2 %, μM^2 % or nMμM %
  Antagonism Volume, Result 2: 0 nM^2 %, μM^2 % or nMμM %
  Antagonism Volume, Result 3: −0.77 nM^2 %, μM^2 % or nMμM %
  Mean Antagonism Volume (n = 3): −21.7 nM^2 %, μM^2 % or nMμM %
  Mean Synergy Volume (n = 3): 11.5 nM^2 %, μM^2 % or nMμM %
  Synergy Volume, Result 1: 5.01 nM^2 %, μM^2 % or nMμM %
  Synergy Volume, Result 2: 32.7 nM^2 %, μM^2 % or nMμM %
  Synergy Volume, Result 3: 0 nM^2 %, μM^2 % or nMμM %

## Nc1nc(NC2CC2)c2ncn([C@H]3C=C[C@@H](CO)C3)c2n1 [ABC, abacavir]
HIV; Human immunodeficiency virus 1, PANEL 1, WT
  IC50: 1.52 µM
HIV; [1]
  IC50: 1.67 µM
HIV; [2]
  IC50: 7.87 µM
HIV; [3]
  IC50: 14 µM
HIV; [4]
  IC50: 4.78 µM
HIV; [5]
  IC50: 32.6 µM
HIV; [6]
  IC50: 46.5 µM
HIV; [7]
  IC50: 5.69 µM
HIV; [8]
  IC50: 11.8 µM
HIV; [9]
  IC50: 3.36 µM
HIV; [10]
  IC50: 9.24 µM
HIV; [11]
  IC50: 34.3 µM
HIV; [12]
  IC50: > 52 µM
HIV; [13]
  IC50: 3.29 µM
HIV; [14]
  IC50: 4.68 µM
HIV; [15]
  IC50: 4.56 µM
HIV; [16]
  IC50: 3.67 µM
HIV; [17]
  IC50: 7.61 µM
HIV; [18]
  IC50: 3.36 µM
HIV; [19]
  IC50: 9.6 µM
HIV; [20]
  IC50: 4.97 µM
HIV; [21]
  IC50: 4.19 µM
HIV; [22]
  IC50: 8.17 µM
HIV; [23]
  IC50: 8.92 µM
HIV; [24]
  IC50: 2.48 µM
HIV; [25]
  IC50: 7.73 µM
HIV; [26]
  IC50: 3.64 µM
HIV; [27]
  IC50: 2.42 µM
HIV; [28]
  IC50: 5.05 µM
HIV; [29]
  IC50: 10.4 µM
HIV; PANEL 1, WT
  IC50 Fold Change: 0.86
HIV; PANEL 2, WT
  IC50 Fold Change: 0.94
HIV; PANEL 3, 6 TAMs, no 184
  IC50 Fold Change: 4.43
HIV; PANEL 6, 6 TAMs + 184
  IC50 Fold Change: 7.91
HIV; PANEL 7, 184V
  IC50 Fold Change: 2.69
HIV; PANEL 9, 69ins, no 184
  IC50 Fold Change: 18.00
HIV; PANEL 12, 69ins + 184
  IC50 Fold Change: 26.00
HIV; PANEL 14, 65R, no 184
  IC50 Fold Change: 3.20
HIV; PANEL 15, 65R + 184V
  IC50 Fold Change: 6.64
HIV; PANEL 17, L74V
  IC50 Fold Change: 1.89
HIV; PANEL 19, L74V + M184V
  IC50 Fold Change: 5.21
HIV; PANEL 26, 151M, no 184
  IC50 Fold Change: 19.00
HIV; PANEL 28, 151M + 184
  IC50 Fold Change: >29.2959
HIV; PANEL 29, L74V − SDM
  IC50 Fold Change: 1.85
HIV; PANEL 30, M184V − SDM
  IC50 Fold Change: 2.64
HIV; PANEL 31, K65R − SDM
  IC50 Fold Change: 2.57
HIV; PANEL 33, T215Y
  IC50 Fold Change: 2.06
HIV; PANEL 34, T215Y + M184V
  IC50 Fold Change: 4.29
HIV; PANEL 35, M41L + T215Y
  IC50 Fold Change: 1.89
HIV; PANEL 37, M41L + T215Y + M184V
  IC50 Fold Change: 5.41
HIV; PANEL 38, M41L + L210W + T215Y
  IC50 Fold Change: 2.80
HIV; PANEL 39, M41L + L210W + T215Y
  IC50 Fold Change: 2.36
HIV; PANEL 40, M41L + L210W + T215Y + M184V
  IC50 Fold Change: 4.60
HIV; PANEL 41, M41L + L210W + T215Y + M184V
  IC50 Fold Change: 5.02
HIV; PANEL 42, D67N + K70R
  IC50 Fold Change: 1.40
HIV; PANEL 44, D67N + K70R + T215F + K219E + M184V
  IC50 Fold Change: 4.36
HIV; PANEL 45, L210W + T215Y
  IC50 Fold Change: 2.05
HIV; PANEL 46, D67N + K70E
  IC50 Fold Change: 1.36
HIV; PANEL 47, D67N + K70E + M184V
  IC50 Fold Change: 2.85
HIV; PANEL 48, K70E + M184V
  IC50 Fold Change: 5.88
HIV-1IIIB
  Antagonism Volume, Result 1: −35.8 nM^2 %, μM^2 % or nMμM %
  Antagonism Volume, Result 2: −2.32 nM^2 %, μM^2 % or nMμM %
  Antagonism Volume, Result 3: −12.1 nM^2 %, μM^2 % or nMμM %
  Mean Antagonism Volume (n = 3): −16.7 nM^2 %, μM^2 % or nMμM %
  Mean Synergy Volume (n = 3): 14.9 nM^2 %, μM^2 % or nMμM %
  Synergy Volume, Result 1: 25.1 nM^2 %, μM^2 % or nMμM %
  Synergy Volume, Result 2: 0 nM^2 %, μM^2 % or nMμM %
  Synergy Volume, Result 3: 19.7 nM^2 %, μM^2 % or nMμM %
